Assay results: paper PMC5104457, “ATP-Competitive MLKL Binders Have No Functional Impact on Necroptosis” (PLoS ONE, 2016)

Tests used:
[1] = target: T1, full length MLKL (Homo sapiens, UniProt Q8NB16); assay: KINOMEscan ATP-competitive probe displacement (competition binding) assay, MLKL; conditions: average of duplicates
T1 construct: purchased DiscoverX (KINOMEscan service); host or cells: HEK-293
T1 sequence (Q8NB16 1-471): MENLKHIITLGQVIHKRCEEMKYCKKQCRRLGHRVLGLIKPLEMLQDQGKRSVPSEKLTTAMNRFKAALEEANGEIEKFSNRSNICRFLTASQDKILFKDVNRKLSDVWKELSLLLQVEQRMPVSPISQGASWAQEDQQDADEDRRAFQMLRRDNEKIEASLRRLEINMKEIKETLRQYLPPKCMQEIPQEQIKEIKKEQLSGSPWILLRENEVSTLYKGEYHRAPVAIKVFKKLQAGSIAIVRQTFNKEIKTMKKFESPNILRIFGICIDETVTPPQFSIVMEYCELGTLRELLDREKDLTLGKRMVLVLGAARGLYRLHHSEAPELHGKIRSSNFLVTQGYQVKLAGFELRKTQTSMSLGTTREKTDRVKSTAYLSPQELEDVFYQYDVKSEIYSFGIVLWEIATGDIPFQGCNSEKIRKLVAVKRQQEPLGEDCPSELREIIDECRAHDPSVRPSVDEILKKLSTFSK
Procedure: Compound binding constants (KDs) were determined at DiscoverX using their KINOMEscan assay platform. […] Briefly, full length MLKL was expressed in HEK-293 cells as a fusion with an NFκB DNA binding domain and subsequently tagged with a qPCR detection amplicon via interaction with NFκB. […] Twenty microliters of binding reactions were carried out in 384-well polypropylene plates for 1 hour at room temperature. Beads were subsequently washed and resuspended in elution buffer for 30 minutes at room temperature with shaking. The concentration of MLKL in the eluates was measured by qPCR and compound binding constants were calculated using a standard dose-response curve.
(§1) A similar approach was used to measure binding affinities for RIPK1 and RIPK3 kinase domains.

[2] = target: T2, RIPK1 kinase domain (Homo sapiens, UniProt Q13546); assay: ATP-competitive probe displacement assay, RIPK1; format: binding; conditions: average of duplicates
T2 construct: purchased DiscoverX
T2 sequence (Q13546 17-289 limits assumed): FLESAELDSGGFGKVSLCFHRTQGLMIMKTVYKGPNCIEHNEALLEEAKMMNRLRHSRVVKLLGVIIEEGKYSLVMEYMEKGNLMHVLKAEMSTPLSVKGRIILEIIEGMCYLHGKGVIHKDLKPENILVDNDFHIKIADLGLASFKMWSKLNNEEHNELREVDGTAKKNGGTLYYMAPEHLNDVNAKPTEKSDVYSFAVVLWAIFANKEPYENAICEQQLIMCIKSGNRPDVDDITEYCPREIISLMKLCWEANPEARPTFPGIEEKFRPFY
Procedure: (§2) Compound binding constants (KDs) were determined at DiscoverX using their KINOMEscan assay platform. This competition binding assay was previously described in Karaman et al. (2008)[18]. Briefly, full length MLKL was expressed in HEK-293 cells as a fusion with an NFκB DNA binding domain and subsequently tagged with a qPCR detection amplicon via interaction with NFκB. […] Twenty microliters of binding reactions were carried out in 384-well polypropylene plates for 1 hour at room temperature. Beads were subsequently washed and resuspended in elution buffer for 30 minutes at room temperature with shaking. The concentration of MLKL in the eluates was measured by qPCR and compound binding constants were calculated using a standard dose-response curve.
as §1

[3] = target: T3, RIPK3 kinase domain (Homo sapiens, UniProt Q9Y572); assay: ATP-competitive probe displacement assay, RIPK3; format: binding; conditions: average of duplicates
T3 construct: purchased DiscoverX
T3 sequence (Q9Y572 21-287 limits assumed): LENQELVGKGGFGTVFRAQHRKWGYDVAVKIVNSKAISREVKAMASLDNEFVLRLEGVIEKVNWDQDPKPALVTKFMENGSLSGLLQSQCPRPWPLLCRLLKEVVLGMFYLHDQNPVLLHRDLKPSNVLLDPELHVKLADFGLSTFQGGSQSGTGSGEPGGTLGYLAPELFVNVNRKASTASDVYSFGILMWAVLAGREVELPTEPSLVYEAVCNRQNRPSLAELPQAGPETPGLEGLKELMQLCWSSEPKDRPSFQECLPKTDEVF
Procedure: as §2, §1

[4] = target: T4, pseudokinase His-MLKL-1 (Homo sapiens, UniProt Q8NB16); assay: Second harmonic generation (SHG) conformational assay, MLKL pseudokinase domain; conditions: 10 μM compound; MLKL construct not given
T4 construct: sub-cloning residues 191 to 471 of the pseudokinase domain of human MLKL cDNA; made in house; host or cells: Escherichia coli BL21 (DE3)
T4 sequence (Q8NB16 191-471): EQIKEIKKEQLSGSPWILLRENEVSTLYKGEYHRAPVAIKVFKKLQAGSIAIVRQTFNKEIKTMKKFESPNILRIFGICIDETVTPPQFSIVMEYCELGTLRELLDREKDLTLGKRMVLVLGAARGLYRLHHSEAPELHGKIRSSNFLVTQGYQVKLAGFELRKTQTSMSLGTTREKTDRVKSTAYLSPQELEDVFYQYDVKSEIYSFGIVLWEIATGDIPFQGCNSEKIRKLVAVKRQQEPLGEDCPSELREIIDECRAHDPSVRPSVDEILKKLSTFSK
Source text: MLKL-1 was constructed by sub-cloning residues 191 to 471 of the pseudokinase domain of human MLKL cDNA into a pET15b vector with a thrombin cleavable N-terminal six histidine fusion tag (His-MLKL-1). MLKL-2 had the same protein boundaries and fusion tag system as MLKL-1 but the dual mutations E366A and K367A were introduced using site directed mutagenesis and was expressed in the same vector (His-MLKL-2). These residues were identified as having high surface entropy and were mutated to alanine to improve crystal packing.
The labeling reaction was performed according to manufacturer’s instructions. […]
Experiments were performed on a Biodesy Delta System. […] The fundamental is directed to an arrangement of prisms integrated with the custom, glass-bottomed Biodesy Delta Read Plates, where it undergoes total internal reflection (TIR) to generate the evanescent field at the glass-lipid bilayer interface. […] The fundamental light is filtered out leaving only the SH light which is detected by a photomultiplier tube and processed with custom electronics. […] Ligand injection into the read plate is accomplished with an on-board 8-channel MEMS-based electronic pipetting system, enabling high speed and accuracy. […]
In addition, all experiments included a control buffer injection that was used to determine the significant threshold for SHG intensity change and was calculated in a similar manner. […]

- Kd [1]: 7.6 µM
- Kd [2]: > 30 µM
- Kd [3]: > 30 µM
- change in SHG intensity (in words) [4]: no change from baseline
SMILES: Nc1nccnc1C(=O)O[C@H](C(=O)Nc1ccc(F)cc1)c1ccccc1 [cpd 5]
